Test results taken from patent US6294674A, “Dibenzofuran sulfonamide matrix metalloproteinase inhibitors” (priority 1999, dated 2001).

Tests used:
[1] = test system: MMP-13CD; test: Thiopeptolide assay, MMP-13CD; assay type: biochemical, human; conditions: Tables 2, 3, 5, 7
Procedure: IC50 values were determined using a thiopeptolide substrate, Ac-Pro-Leu-Gly-thioester-Leu-Leu-Gly-OEt (Ye Q.-Z., Johnson L. L., Hupe D. J., and Baragi V., "Purification and Characterization of the Human Stromelysin Catalytic Domain Expressed in Escherichia coli," Biochemistry, 1992;31:11231-11235). MMP01, MMP07, MMP09, and MMP13 activity was assayed in a method similar to MMP02 and MMP03 (SCD and GCD). MMP01 and MMP09 can be obtained from Washington University School of Medicine, St. Louis, Mo. MMP07 can be obtained in accordance with the known procedure set forth by Ye QZ, Johnson L. L., and Baragi V., "Gene Syntheses and Expression in E. coli for PUMP, a Human Matrix Metalloproteinase" Biochem. and Biophys. Res. Comm., 1992; 186:143-149. MMP 13 can be obtained in accordance with the known procedure set forth by Freije J. M. P., et al., "Molecular Cloning and Expression of Collegenase-3, a Novel Human Matrix Metalloproteinase Produced by Breast Carcinomas" J. Bio. Chem., 1994;269:16766-6773.
(§1) Hydrolysis of the thiopeptolide substrate Ac-Pro-Leu-Gly-thioester-Leu-Leu-Gly-OEt (Bachem) is used as the primary screen to determine IC50 values for MMP inhibitors. A 100 μL reaction contains 1 mM 5,5'-dithiobis(2-nitrobenzoic acid) (DTNB), 100 μM substrate, 0.1% Brij, enzyme, and inhibitor in the appropriate reaction buffer. Activated full-length enzymes are assayed at 5 nM, Stromelysin Catalytic Domain (SCD) at 10 nM, and Gelatinase A Catalytic Domain (GaCD) at 1 nM. Inhibitors are screened from 100 μM to 1 nM. Full-length enzymes are assayed in 50 mM HEPES, 10 mM CaCl2, pH 7.0; SCD in 50 mM MES, 10 mM CaCl2, pH 6.0; and GaCD in 50 mM MOPS, 10 mM CaCl2, 10 μM ZnCl2, pH 7.0. The change in absorbance at 405 riM is monitored on a ThermoMax microplate reader at room temperature continuously for 20 minutes.

[2] = target: T1, stromelysin-1 catalytic domain (MMP03) (Homo sapiens, UniProt P08254); test: Thiopeptolide assay, stromelysin-1 catalytic domain (SCD, MMP03); assay type: biochemical; conditions: Tables 2, 3, 5, 7; read-out: IC50 MMP 3CD
T1 construct: SCD (stromelysin-1 catalytic domain); made in house; host or cells: Escherichia coli
Procedure: as §1, with “7.0.” for “7.0. The change in absorbance at 405 riM is monitored on a ThermoMax microplate reader at room temperature continuously for 20 minutes.”

[3] = target: T2, MMP07 (Homo sapiens, UniProt P09237); test: Thiopeptolide assay, MMP07; assay type: biochemical; conditions: Tables 2, 3, 5, 7; read-out: IC50 MMP-7
T2 construct: made in house; host or cells: Escherichia coli
T2 sequence (P09237 95-267): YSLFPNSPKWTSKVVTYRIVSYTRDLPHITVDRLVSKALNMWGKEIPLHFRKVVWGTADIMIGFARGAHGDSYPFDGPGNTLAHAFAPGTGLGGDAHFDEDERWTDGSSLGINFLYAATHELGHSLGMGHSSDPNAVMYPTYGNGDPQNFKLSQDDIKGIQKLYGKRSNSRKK
Procedure: (§2) MMP01, MMP07, MMP09, and MMP13 activity was assayed in a method similar to MMP02 and MMP03 (SCD and GCD). MMP01 and MMP09 can be obtained from Washington University School of Medicine, St. Louis, Mo. MMP07 can be obtained in accordance with the known procedure set forth by Ye QZ, Johnson L. L., and Baragi V., "Gene Syntheses and Expression in E. coli for PUMP, a Human Matrix Metalloproteinase" Biochem. and Biophys. […] MMP 13 can be obtained in accordance with the known procedure set forth by Freije J. M. P., et al., "Molecular Cloning and Expression of Collegenase-3, a Novel Human Matrix Metalloproteinase Produced by Breast Carcinomas" J. Bio.
as §1, with “7.0.” for “7.0. The change in absorbance at 405 riM is monitored on a ThermoMax microplate reader at room temperature continuously for 20 minutes.”

[4] = target: T3, MMP01 (Homo sapiens, UniProt P03956); test: Thiopeptolide assay, MMP01; assay type: biochemical; conditions: Tables 2, 3, 5, 7; read-out: IC50 MMP1
T3 construct: purchased Washington University School of Medicine, St. Louis, Mo
T3 sequence (P03956 100-469): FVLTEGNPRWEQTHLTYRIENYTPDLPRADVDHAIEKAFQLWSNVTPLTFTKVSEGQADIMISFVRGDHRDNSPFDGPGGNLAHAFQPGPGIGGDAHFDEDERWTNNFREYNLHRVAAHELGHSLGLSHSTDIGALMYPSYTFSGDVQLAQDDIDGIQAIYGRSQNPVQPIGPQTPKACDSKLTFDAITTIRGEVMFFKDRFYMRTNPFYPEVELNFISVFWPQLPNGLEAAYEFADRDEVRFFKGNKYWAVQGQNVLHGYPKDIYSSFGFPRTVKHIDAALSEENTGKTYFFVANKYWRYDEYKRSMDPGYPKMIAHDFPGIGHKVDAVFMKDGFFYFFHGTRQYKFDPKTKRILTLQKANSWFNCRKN
Procedure: as §2
as §1, with “7.0.” for “7.0. The change in absorbance at 405 riM is monitored on a ThermoMax microplate reader at room temperature continuously for 20 minutes.”

[5] = target: gelatinase A catalytic domain (MMP02); test: Thiopeptolide assay, gelatinase A catalytic domain (GCD, MMP02); assay type: biochemical; conditions: Tables 2, 3, 5, 7; read-out: IC50 MMP-2CD
Procedure: as §1, with “7.0.” for “7.0. The change in absorbance at 405 riM is monitored on a ThermoMax microplate reader at room temperature continuously for 20 minutes.”

T1 sequence (P08254 100-272 limits assumed): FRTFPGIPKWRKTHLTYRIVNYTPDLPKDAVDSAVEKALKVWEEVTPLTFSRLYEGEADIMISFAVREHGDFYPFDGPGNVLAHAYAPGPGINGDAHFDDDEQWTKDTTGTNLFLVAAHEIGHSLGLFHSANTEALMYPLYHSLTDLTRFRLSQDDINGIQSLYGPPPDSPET

SMILES: O=C(CCCc1ccccc1)NCCCCC(NS(=O)(=O)c1ccc2oc3ccccc3c2c1)C(=O)O (stereo not shown) [Example A26, 2-(Dibenzofuran-2-sulfonylamino)-6-(4-phenyl-butyrylamino)-hexanoic acid]
- IC50 [1]: 5.4 µM
- IC50 [2]: 4.2 µM
- IC50 [3]: > 100 µM
- IC50 [4]: > 100 µM
- IC50 [5]: 1.5 µM

SMILES: Cc1ccc(CCC(=O)NCCCCC(NS(=O)(=O)c2ccc3oc4ccccc4c3c2)C(=O)O)cc1 (stereo not shown) [Example A27, 2-(Dibenzofuran-2-sulfonylamino)-6-(3-p-tolyl-propionylamino)-hexanoic acid]
- IC50 [1]: 5.8 µM
- IC50 [2]: 7.7 µM
- IC50 [3]: > 100 µM
- IC50 [4]: > 100 µM
- IC50 [5]: 1.1 µM

SMILES: O=C(CCc1ccc(Cl)cc1)NCCCCC(NS(=O)(=O)c1ccc2oc3ccccc3c2c1)C(=O)O (stereo not shown) [Example A28, 6-[3-(4-Chloro-phenyl)-propionylamino]-2-(dibenzofuran-2-sulfonylamino)-hexanoic acid]
- IC50 [1]: 8.7 µM
- IC50 [2]: 4.5 µM
- IC50 [3]: > 100 µM
- IC50 [4]: > 100 µM
- IC50 [5]: 1.8 µM

SMILES: O=C(CCCc1c[nH]c2ccccc12)NCCCCC(NS(=O)(=O)c1ccc2oc3ccccc3c2c1)C(=O)O (stereo not shown) [Example A31, 2-(Dibenzofuran-2-sulfonylamino)-6-(4-1H-indol-3-yl-butyrylamino)-hexanoic acid]
- IC50 [1]: 12.8 µM
- IC50 [2]: 6.4 µM
- IC50 [3]: > 100 µM
- IC50 [4]: > 100 µM
- IC50 [5]: 3.3 µM

SMILES: O=C(CCCc1cccs1)NCCCCC(NS(=O)(=O)c1ccc2oc3ccccc3c2c1)C(=O)O (stereo not shown) [Example A35, 2-(Dibenzofuran-2-sulfonylamino)-6-[4-thiophen-2-yl-butyrylamino)-hexanoic acid]
- IC50 [1]: 4.4 µM
- IC50 [2]: 1.7 µM
- IC50 [3]: > 100 µM
- IC50 [4]: > 100 µM
- IC50 [5]: 1.1 µM

SMILES: O=C(O)C(CCCCNC(=O)C1(c2ccccc2)CC1)NS(=O)(=O)c1ccc2oc3ccccc3c2c1 (stereo not shown) [Example A38, 2-(Dibenzofuran-2-sulfonylamino)-6-(1-phenyl-cyclopropanecarbonylamino)-hexanoic acid]
- IC50 [1]: 4.2 µM
- IC50 [2]: 1.4 µM
- IC50 [3]: > 100 µM
- IC50 [4]: > 100 µM
- IC50 [5]: 0.6 µM

SMILES: COc1ccc(NC(=O)NCCCCC(NS(=O)(=O)c2ccc3oc4ccccc4c3c2)C(=O)O)cc1 (stereo not shown) [Example B1, 2-(Dibenzofuran-2-sulfonylamino)-6-[3-(4-methoxy-phenyl)-ureido]-hexanoic acid]
- IC50 [1]: 14.2 µM
- IC50 [2]: 8.8 µM
- IC50 [3]: > 100 µM
- IC50 [4]: > 100 µM
- IC50 [5]: 2.7 µM

SMILES: O=C(NCCCCC(NS(=O)(=O)c1ccc2oc3ccccc3c2c1)C(=O)O)Nc1ccc(Cl)c(Cl)c1 (stereo not shown) [Example B2, 2-(Dibenzofuran-2-sulfonylamino)-6-[3-(3,4dichloro-phenyl)-ureido]-hexanoicacid]
- IC50 [1]: > 100 µM
- IC50 [2]: 89.3 µM
- IC50 [3]: > 100 µM
- IC50 [4]: > 100 µM
- IC50 [5]: 22.2 µM
